# Results published in US10913746B2, “Substituted 4-phenylpiperidines, their preparation and use” (The Trustees of Columbia University in the City of New York, priority 2014, dated 2021).
# Counter-ions that a name gives are not always drawn.
# Tests used:
# [1] = tested on: Abca4−/− mouse model; assay: Bisretinoid accumulation in Abca4−/− mouse model; assay type: in vivo; conditions: Example 112, present tense; 25 mg/kg for 12 weeks, mice starting at 17 weeks old
# Experimental: (§1) Abca4−/− mice have A2E levels in the ˜15-19 pmoles/eye range at 17 weeks old. Mice, starting at 17 weeks old, were treated with 25 mg/kg of Compound 81 for 12 weeks.
# [2] = molecular target: serum RBP4 (Mus musculus (Mouse), UniProt Q00724); assay: Serum RBP4 levels in Abca4−/− mice; assay type: in vivo; conditions: Example 112, present tense; 25 mg/kg for 12 weeks, mice starting at 17 weeks old
# Experimental: as §1
# [3] = tested on: subject afflicted with AMD or Stargardt disease; assay: Administration to the eye of a subject afflicted with AMD or Stargardt disease; assay type: in vivo; conditions: Example 113, present tense; administered to the eye
# Experimental: An amount of a compound 81 is administered to the eye of a subject afflicted with AMD.
# An amount of a compound 81 is administered to the eye of a subject afflicted with Stargardt disease.
# [4] = molecular target: RBP4 (Homo sapiens (Human), UniProt P02753); conditions: cited from earlier work
serum RBP4 reduction [2],Structure (SMILES),bisretinoid accumulation in Abca4−/− mouse model [1],treatment of subject afflicted with AMD [3],treatment of subject afflicted with Stargardt disease [3],"binding to RBP4, displacement of all-trans retinol [4]"
significant serum RBP4 reduction,"O=C(c1n[nH]c2c1CNC2)N1CCC(c2ccc(F)c(F)c2C(F)(F)F)CC1 [Compound 38, (4-(3,4-Difluoro-2-(trifluoromethyl)phenyl)piperidin-1-yl)(1,4,5,6-tetrahydropyrrolo[3,4-c]pyrazol-3-yl)methanone Hydrochloride]",inhibit bisretinoid accumulation,,,
significant serum RBP4 reduction,"O=C(c1n[nH]c2c1CNCC2)N1CCC(c2cccc(F)c2Cl)CC1 [Compound 42, (4-(2-Chloro-3-fluorophenyl)piperidin-1-yl)(4,5,6,7-tetrahydro-1Hpyrazolo[4,3-c]pyridin-3-yl)methanone Hydrochloride]",inhibit bisretinoid accumulation,,,
significant serum RBP4 reduction,"O=C(c1n[nH]c2c1CCNC2)N1CCC(c2cccc(F)c2Cl)CC1 [Compound 40, (4-(2-Chloro-3-fluorophenyl)piperidin-1-yl)(4,5,6,7-tetrahydro-1Hpyrazolo[3,4-c]pyridin-3-yl)methanone Hydrochloride]",inhibit bisretinoid accumulation,,,

# The next lines start with the molecule.
Structure (SMILES),serum RBP4 reduction [2],bisretinoid accumulation in Abca4−/− mouse model [1],treatment of subject afflicted with AMD [3],treatment of subject afflicted with Stargardt disease [3],"binding to RBP4, displacement of all-trans retinol [4]"
"O=C(c1n[nH]c2c1CCNC2)N1CCC(c2cccc(F)c2C(F)(F)F)CC1 [Compound 30, (4-(3-Fluoro-2-(trifluoromethyl)phenyl)piperidin-1-yl)(4,5,6,7-tetrahydro-1H-pyrazolo[3,4-c]pyridin-3-yl)methanone Hydrochloride]",significant serum RBP4 reduction,inhibit bisretinoid accumulation,,,
"CC(=O)N1CCc2c(C(=O)N3CCC(c4ccc(F)c(F)c4C(F)(F)F)CC3)n[nH]c2C1 [Compound 81, 1-(3-(4-(3,4-Difluoro-2-(trifluoromethyl)phenyl)piperidine-1-carbonyl)-4,5-dihydro-1H-pyrazolo[3,4-c]pyridin-6(7H)-yl)ethanone]",,,effective to treat the subject,effective to treat the subject,
"CC1=C(/C=C/C(C)=C/C=C/C(C)=C/C(=O)Nc2ccc(O)cc2)C(C)(C)CCC1 [fenretinide, N-(4-hydroxy-phenyl)retinamide]",,,,,bind to RBP4
"O=C(c1n[nH]c2c1CNCC2)N1CCC(c2ccc(F)c(F)c2C(F)(F)F)CC1 [Compound 36, (4-(3,4-Difluoro-2-(trifluoromethyl)phenyl)piperidin-1-yl)(4,5,6,7-tetrahydro-1H-pyrazolo[4,3-c]pyridin-3-yl)methanone Trifluoroacetic Acid Salt]",significant serum RBP4 reduction,inhibit bisretinoid accumulation,,,
O=C(c1n[nH]c2c1CCNC2)N1CCC(c2ccc(F)c(F)c2C(F)(F)F)CC1 [Compound 34],significant serum RBP4 reduction,inhibit bisretinoid accumulation,,,
